Where no end group is shown, it is not given here.
Key:
TNF-α protein = TNF-α protein (Homo sapiens, UniProt P01375); experiment: ELISA affinity assay of FITC-labeled peptide to coated TNF-α; format: binding; conditions: FIG. 1 / FIG. 2
Procedure: (§1) A 96-well ELISA plate was coated with 2 μg/ml TNF-α solution at 4° C. overnight. Different concentrations of peptide 632 labeled with FITC were added to each well and incubated for 2 h. After incubation, HRP-conjugated anti-FITC monoclonal antibody was added, incubated for 1 h, and then ABTS coloring solution was added. After color development for 1 h, the OD value at 410 nm was measured using a microplate reader, and GraphPad Prism 5 was used for plotting and analysis.
as §1, with “TNF-α protein” for “TNF-α solution”, “overnight. After blocking with BSA, different” for “overnight. Different”

[1] = tested on: p-xylene induced ear swelling in Kunming mice; experiment: p-xylene induced mouse ear swelling model of inflammation; format: in vivo; conditions: male Kunming mice, subcutaneous injection for 3 consecutive days, p-xylene on right auricle, 1 h, versus control group
Procedure: The experimental animals were divided into three groups: blank group, a non-related peptide control group and an antagonist peptide (peptide 632) group. Using mice as an example, male Kunming mice of 6 weeks old were injected subcutaneously at right abdomen for 3 consecutive days. After the last injection, mice of each group were smeared with p-xylene on both sides of the right auricle. 1 h after the treatment, mice were sacrificed, and the left and right ears of the mice were cut. An ear swelling puncher was used to cut down ears to obtain ear pieces. Swelling degree of mouse ear were obtained by subtracting the weighs of left ear piece from the weighs of right ear piece.
The experimental animals were divided into three groups: blank group, a non-related peptide control group and an antagonist peptide (peptide 632) group. Male Kunming mice of 6 weeks old were injected subcutaneously with peptides at right abdomen for 3 consecutive days. 30 min after the last injection, mice of each group were smeared with p-xylene (0.03 ml/per mouse) on both sides of the right auricle to induce inflammation, and the left auricle was served as normal control. 1 h after the inflammation, animals were sacrificed, and the ears of mice were completely cut and marked to distinguish the left and right ears of the same mouse. […] The ear pieces were weighed together with papers, and the results were recorded. […]

Sequence of TNF-α protein (P01375 77-233 limits assumed, species assumed): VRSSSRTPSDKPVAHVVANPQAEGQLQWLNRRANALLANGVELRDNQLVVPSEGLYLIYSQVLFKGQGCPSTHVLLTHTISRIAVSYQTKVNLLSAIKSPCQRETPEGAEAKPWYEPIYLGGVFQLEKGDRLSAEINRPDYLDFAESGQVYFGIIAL

Substance | binding affinity for TNF-α protein (in words) (TNF-α protein) | swelling degree of mouse ear [1] | swelling degree of mouse ear ([1]; listed as antagonist peptide)
KASGSPSGFWPS [peptide 636] | high binding affinity |  | 
HYIDFRW [peptide 632, HYIDFRW] | high binding affinity | significantly lower than those of the control group | significantly inhibit the swelling of the mouse ear

From US12129278B2, “High-affinity peptide for tumor necrosis factor alpha and application thereof” (priority 2017, dated 2024)
